Results published in patent EP0359256A2, “The use of inositoltrisphosphate in the treatment of tissue damage” (PERSTORP AB, priority 1988, dated 1990).

Legend:
Type in all cases: in vivo
rat hind-paw = assay: Carrageenan-induced oedema of the rat hind-paw; conditions: male rats, 1000 mg/kg injected 2 hours and 1 hour before carrageenan; four hours after induction of the damage
Description: Injection of carrageenan into the subplanar surface of the rat hind-paw induces a tissue damage that results in pronounced oedema. The degree of oedema can be reproducibly quantified by measuring paw circumference.
Two groups of five male rats were injected 2 hours and 1 hour before injection of carrageenan with 1000 mg/kg D-myo-inositol-1.2.6-trisphosphate (IP₃) or Krebs ringer solution (control) respectively.
Measurement of the paw diameter was made at hourly intervals.

mice = assay: Toxicity after intraperitoneal injection of very high doses; conditions: 160 mg/kg body weight by intraperitoneal injection
[1] = tested on: shaved dorsal skin of rabbits; assay: Local oedema formation in rabbit dorsal skin in response to mediators of increased microvascular permeability, Evans Blue; conditions: 50 mg/kg directly after injection of the mediators
Description: Local oedema formation is measured in the shaved dorsal skin of rabbits in response to mediators of increased microvascular permeability, such as histamine, bradykinin and platelet activating factor (PAF). When a vasodilator such as calcitonin gene-related peptide (CGRP) is administered together with the mediators the blood flow is increased and this system is established for testing compounds that reduces oedema formation.
Prior to injection of the different mediators Evans Blue is injected into the anaesthetized animals. The distribution of Evans Blue is a measurement of the tissue damage and oedema formation. Directly after injection of the mediators either saline (control) or 50 mg/kg of D-myo-inositol-1.2.6-trisphos phate (IP₃) are performed.
The results are shown below as per cent inhibition of IP₃ compared to control.

hamster cheek pouch = assay: Vascular permeability and bleeding induced by histamine in the hamster cheek pouch; conditions: 80 min period
Description: Vascular permeability and bleeding induced by histamine in the hamster cheek pouch was determined in the presence of D-myo-inositol-1.2.6-trisphosphate (IP₃) compared to control. Male hamsters were fasted overnight and anaesthetised with sodium pentobarbitone. Infusion was performed through the jugular vein. Injection of histamine (2.7 mg/kg) was preceded by either saline (control) or IP₃ (5.0 mg/kg).

skin of the abdomen = assay: Controlled burn damage in rats, albumin leakage measured with Evans Blue; conditions: n=10, 10 mg/kg injection 15 minutes after the burn, then infusion of 0.2 mg/min for 2 hours
Description: A controlled burn damage is induced in rats as a heat probe is applied to the skin of the abdomen with a constant pressure. The probe has a surface temperature of […] and is allowed to deliver a specific amount of energy until the temperature is lowered to 37°C. 15 minutes after the induction of the burn an injection of saline (control) or D-myo-inositol-1.2.6-trisphosphate (IP₃) was performed. After this first injection (10 mg/kg IP₃) an infusion of 0.2 mg/min IP₃ followed for 2 hours. 90 minutes after the damage Evans Blue is injected to the animals. This compound binds to albumin, which leaks into the damaged tissue. The amount of albumin leakage is then easily determined by measuring the intensity of colour of Evans Blue in different parts of the tissue. After another 30 minutes the animals are killed and the tissue damage is determined. […] Thus IP₃ is an protective substance against tissue damage caused by burns.

O=P(O)(O)OC1[C@H](OP(=O)(O)O)[C@H](O)C(O)[C@H](O)[C@H]1OP(=O)(O)O (stereo partly drawn) [IP₃, D-myo-inositol-1.2.6-trisphosphate]
reduces the oedema as compared to control (rat hind-paw): 40% | toxic effects (mice): no toxic effects | % inhibition with IP₃ compared to control ([1]; mediator Bradykinin): 64% | % inhibition with IP₃ compared to control ([1]; mediator Histamine): 61% | % inhibition with IP₃ compared to control ([1]; mediator PAF): 64% | % inhibition (hamster cheek pouch; inhibition of petechiae versus saline control, histamine 2.7 mg/kg, IP₃ 5.0 mg/kg): 88% | number of petechiae (hamster cheek pouch; male hamsters, histamine 2.7 mg/kg preceded by IP₃ 5.0 mg/kg, infusion through jugular vein): 1.0 | burn damage compared to control (skin of the abdomen): significantly reduced
